Results as given in US10945435B2, “Imidazopyrimidine derivatives with sulfur containing phenyl and pyridyl substituents” (SYNGENTA PARTICIPATIONS AG, priority 2017, dated 2021).

Key:
[1] = tested on: Bemisia tabaci (Cotton White Fly); test: Example B1 Bemisia tabaci feeding/contact activity; format: in vivo; settings: foliar, 144 h, application rate of 200 ppm, adult white flies on sprayed cotton leaf discs, 6 days after incubation
Method: Bemisia tabaci (Cotton White Fly): Feeding/Contact Activity
Cotton leaf discs were placed on agar in 24-well microtiter plates and sprayed with aqueous test solutions prepared from 10,000 ppm DMSO stock solutions. After drying the leaf discs were infested with adult white flies. The samples were checked for mortality 6 days after incubation.

[2] = tested on: Diabrotica balteata (Corn Root Worm); test: Example B2 Diabrotica balteata mortality and growth inhibition; format: in vivo; settings: 96 h, application rate of 200 ppm, L2 larvae on sprayed maize sprouts, 4 days after infestation, read-out: effect in at least one of the two categories (mortality or growth inhibition)
Method: Diabrotica balteata (Corn Root Worm)
(§1) Maize sprouts placed onto an agar layer in 24-well microtiter plates were treated with aqueous test solutions prepared from 10,000 ppm DMSO stock solutions by spraying. After drying, the plates were infested with L2 larvae (6 to 10 per well). The samples were assessed for mortality and growth inhibition in comparison to untreated samples 4 days after infestation.

[3] = tested on: Diabrotica balteata (Corn Root Worm); test: Example B3 Diabrotica balteata growth inhibition; format: in vivo; settings: 96 h, application rate of 200 ppm, L2 larvae on sprayed maize sprouts, 4 days after infestation
Method: (§2) Diabrotica Balteata (Corn Root Worm):
as §1, with “for” for “for mortality and”, “infestation. Control of Diabrotica balteata by a test sample is given when the growth inhibition is higher than in the untreated sample.” for “infestation.”

[4] = tested on: Diabrotica balteata (Corn Root Worm); test: Example B4 Diabrotica balteata mortality; format: in vivo; settings: 96 h, application rate of 200 ppm, L2 larvae on sprayed maize sprouts, 4 days after infestation
Method: as §2
as §1, with “mortality” for “mortality and growth inhibition in comparison to untreated samples”

[5] = tested on: Myzus persicae (Green Peach Aphid); test: Example B9 Myzus persicae feeding/contact activity; format: in vivo; settings: foliar, 144 h, application rate of 200 ppm, mixed-age aphids on sprayed sunflower leaf discs, 6 days after infestation
Method: Myzus persicae (Green Peach Aphid): Feeding/Contact Activity
Sunflower leaf discs were placed onto agar in a 24-well microtiter plate and sprayed with aqueous test solutions prepared from 10,000 ppm DMSO stock solutions. After drying, the leaf discs were infested with an aphid population of mixed ages. The samples were assessed for mortality 6 days after infestation.

[6] = tested on: Myzus persicae (Green Peach Aphid); test: Example B10 Myzus persicae systemic activity; format: in vivo; settings: 144 h, test rate of 24 ppm, roots of infested pea seedlings in test solution, 6 days
Method: Myzus persicae (Green Peach Aphid). Systemic Activity
Roots of pea seedlings infested with an aphid population of mixed ages were placed directly into aqueous test solutions prepared from 10,000 DMSO stock solutions. The samples were assessed for mortality 6 days after placing seedlings into test solutions.

[7] = tested on: Plutella xylostella (Diamond Back Moth); test: Example B11 Plutella xylostella growth inhibition activity; format: in vivo; settings: 120 h, application rate of 200 ppm, L2 larvae on treated artificial diet, 5 days after infestation
Method: Plutella xylostella (Diamond Back Moth): Growth Inhibition Activity
24-well microtiter plates with artificial diet were treated with aqueous test solutions prepared from 10,000 ppm DMSO stock solutions by pipetting. After drying, the plates were infested with L2 larvae (10 to 15 per well). The samples were assessed for growth inhibition in comparison to untreated samples 5 days after infestation. Control of Plutella xylostella by a test sample is given when the growth inhibition is higher than the untreated sample.

[8] = tested on: Plutella xylostella (Diamond Back Moth); test: Example B12 Plutella xylostella feeding/contact activity; format: in vivo; settings: 120 h, application rate of 200 ppm, L2 larvae on treated artificial diet, 5 days after infestation
Method: Plutella xylostella (Diamond Back Moth): Feeding/Contact Activity
(§3) 24-well microtiter plates with artificial diet were treated with aqueous test solutions prepared from 10,000 ppm DMSO stock solutions by pipetting. After drying, the plates were infested with L2 larvae (10 to 15 per well). The samples were assessed for mortality 5 days after infestation.

[9] = tested on: Plutella xylostella (Diamond Back Moth); test: Example B13 Plutella xylostella mortality and growth inhibition; format: in vivo; settings: 120 h, application rate of 200 ppm, L2 larvae on treated artificial diet, 5 days after infestation, read-out: effect in at least one of the two categories (mortality or growth inhibition)
Method: Plutella xylostella (Diamond Back Moth)
as §3, with “mortality and growth inhibition in comparison to untreated samples” for “mortality”

[10] = tested on: Spodoptera littoralis (Egyptian Cotton Leaf Worm); test: Example B14 Spodoptera littoralis anti-feeding activity; format: in vivo; settings: foliar, 72 h, application rate of 200 ppm, L1 larvae on sprayed cotton leaf discs, 3 days after infestation, read-out: control (anti-feeding effect)
Method: Spodoptera littoralis (Egyptian Cotton Leaf Worm): Anti-Feeding Activity
Cotton leaf discs were placed onto agar in 24-well microtiter plates and sprayed with aqueous test solutions prepared from 10,000 ppm DMSO stock solutions. After drying the leaf discs were infested with five L1 larvae. The samples were assessed for anti-feeding effect in comparison to untreated samples 3 days after infestation. Control of Spodoptera littoralis by a test sample is given when the anti-feedant effect is higher than the untreated sample.

[11] = tested on: Spodoptera littoralis (Egyptian Cotton Leaf Worm); test: Example B16 Spodoptera littoralis feeding/contact activity; format: in vivo; settings: foliar, 72 h, application rate of 200 ppm, L1 larvae on sprayed cotton leaf discs, 3 days after infestation
Method: Spodoptera littoralis (Egyptian Cotton Leaf Worm): Feeding/Contact Activity
Cotton leaf discs were placed onto agar in 24-well microtiter plates and sprayed with aqueous test solutions prepared from 10,000 ppm DMSO stock solutions. After drying the leaf discs were infested with five L1 larvae. The samples were assessed for mortality 3 days after infestation.

[12] = tested on: Euschistus heros (Neotropical Brown Stink Bug); test: Example B5 Euschistus heros mortality and growth inhibition; format: in vivo; settings: 120 h, application rate of 200 ppm, N2 nymphs on sprayed soybean leaves, 5 days after infestation, read-out: effect in at least one of the two categories (mortality or growth inhibition)
Method: Euschistus heros (Neotropical Brown Stink Bug)
(§4) Soybean leaves on agar in 24-well microtiter plates were sprayed with aqueous test solutions prepared from 10,000 ppm DMSO stock solutions. After drying the leaves were infested with N2 nymphs. The samples were assessed for mortality and growth inhibition in comparison to untreated samples 5 days after infestation.

[13] = tested on: Euschistus heros (Neotropical Brown Stink Bug); test: Example B6 Euschistus heros growth inhibition; format: in vivo; settings: 120 h, application rate of 200 ppm, N2 nymphs on sprayed soybean leaves, 5 days after infestation
Method: Euschistus heros (Neotropical Brown Stink Bug): Growth Inhibition
as §4, with “for” for “for mortality and”, “infestation. Control of Euschistus heros by a test sample is given when the growth inhibition is higher than the untreated sample.” for “infestation.”

[14] = tested on: Euschistus heros (Neotropical Brown Stink Bug); test: Example B7 Euschistus heros feeding/contact activity; format: in vivo; settings: 120 h, application rate of 200 ppm, N2 nymphs on sprayed soybean leaves, 5 days after infestation
Method: Euschistus heros (Neotropical Brown Stink Bug): Feeding/Contact Activity
Soybean leaves on agar in 24-well microtiter plates were sprayed with aqueous test solutions prepared from 10,000 ppm DMSO stock solutions. After drying the leaves were infested with N2 nymphs. The samples were assessed for mortality 5 days after infestation.

[15] = tested on: Frankliniella occidentalis (Western Flower Thrips); test: Example B8 Frankliniella occidentalis feeding/contact activity; format: in vivo; settings: foliar, 168 h, application rate of 200 ppm, mixed-age population on sprayed sunflower leaf discs, 7 days after infestation
Method: Frankliniella occidentalis (Western Flower Thrips): Feeding/Contact Activity
Sunflower leaf discs were placed on agar in 24-well microtiter plates and sprayed with aqueous test solutions prepared from 10,000 DMSO stock solutions. After drying the leaf discs were infested with a Frankliniella population of mixed ages. The samples were assessed for mortality 7 days after infestation.

melting point	SMILES	mortality at 200 ppm [1]	percent effect (mortality or growth inhibition) at 200 ppm [2]	mortality at 200 ppm [4]	mortality at 200 ppm [5]	mortality at 24 ppm [6]	mortality at 200 ppm [8]	percent effect (mortality or growth inhibition) at 200 ppm [9]	pest or weed control at 200 ppm [10]	mortality at 200 ppm [11]	percent effect (mortality or growth inhibition) at 200 ppm [12]	mortality at 200 ppm [14]	further results
–	CCS(=N)(=O)c1cc(OC(C)(C)C#N)cnc1-c1cn2cnc(C(F)(F)F)cc2n1 (centres unmarked) [Compound P20, 2-[[5-(ethylsulfonimidoyl)-6-[7-(trifluoromethyl)imidazo[1,2-c]pyrimidin-2-yl]-3-pyridyl]oxy]-2-methyl-propanenitrile]	≥ 80%	≥ 80%	≥ 80%	≥ 80%	≥ 80%	≥ 80%	≥ 80%	≥ 80%	≥ 80%	–	–	inhibition at 200 ppm [3]: ≥ 80%; inhibition at 200 ppm [7]: ≥ 80%
–	CCS(=O)(=O)c1cc(OCC(C)C)cnc1-c1cn2cnc(C(F)(F)F)cc2n1 [Compound P14, 2-(3-ethylsulfonyl-5-isobutoxy-2-pyridyl)-7-(trifluoromethyl)imidazo[1,2-c]pyrimidine]	–	≥ 80%	≥ 80%	≥ 80%	–	≥ 80%	≥ 80%	≥ 80%	≥ 80%	≥ 80%	≥ 80%	inhibition at 200 ppm [13]: ≥ 80%
–	CCS(=O)(=O)c1cc(OCC(F)F)cnc1-c1cn2cnc(C(F)(F)F)cc2n1 [Compound P8, 2-[5-(2,2-difluoroethoxy)-3-ethylsulfonyl-2-pyridyl]-7-(trifluoromethyl)imidazo[1,2-c]pyrimidine]	≥ 80%	≥ 80%	≥ 80%	≥ 80%	≥ 80%	≥ 80%	≥ 80%	≥ 80%	≥ 80%	≥ 80%	≥ 80%	inhibition at 200 ppm [3]: ≥ 80%; mortality at 200 ppm [15]: ≥ 80%; inhibition at 200 ppm [7]: ≥ 80%
230 to 234 °C	CCS(=O)(=O)c1cc(O)cnc1-c1nc2cc(C(F)(F)F)ncn2c1Br [Compound P27, 6-[3-bromo-7-(trifluoromethyl)imidazo[1,2-c]pyrimidin-2-yl]-5-ethylsulfonyl-pyridin-3-ol]	–	–	–	–	–	–	–	–	–	–	–	–
86 to 88 °C	CCS(=O)(=O)c1cc(OCC(F)(F)F)cnc1-c1nc2cc(C(F)(F)F)ncn2c1Br [Compound P25, 3-bromo-2-[3-ethylsulfonyl-5-(2,2,2-trifluoroethoxy)-2-pyridyl]-7-(trifluoromethyl)imidazo[1,2-c]pyrimidine]	–	–	–	–	–	–	–	–	–	–	–	–
229 to 232 °C	CCS(=O)(=O)c1cc(O)cnc1-c1cn2cnc(C(F)(F)F)cc2n1 [Compound P10, 5-ethylsulfonyl-6-[7-(trifluoromethyl)imidazo[1,2-c]pyrimidin-2-yl]pyridin-3-ol]	–	–	–	–	–	–	–	–	–	–	–	–
248 to 250 °C	CCS(=O)(=O)c1cc(OCS(C)(=O)=O)cnc1-c1cn2cnc(C(F)(F)C(F)(F)F)cc2n1 [Compound P26, 2-[3-ethylsulfonyl-5-(methylsulfonylmethoxy)-2-pyridyl]-7-(1,1,2,2,2-pentafluoroethyl)imidazo[1,2-c]pyrimidine]	–	–	–	–	–	–	–	–	–	–	–	–
209 to 210 °C	CCS(=O)(=O)c1cc(OCCS(C)(=O)=O)cnc1-c1cn2cnc(C(F)(F)F)cc2n1 [Compound P24, 2-[3-ethylsulfonyl-5-(2-methylsulfonylethoxy)-2-pyridyl]-7-(trifluoromethyl)imidazo[1,2-c]pyrimidine]	–	–	–	–	–	–	–	–	–	–	–	–
–	CCS(=O)(=O)c1cc(OC[S+](C)[O-])cnc1-c1cn2cnc(C(F)(F)F)cc2n1 (centres unmarked) [Compound P22, 2-[3-ethylsulfonyl-5-(methylsulfinylmethoxy)-2-pyridyl]-7-(trifluoromethyl)imidazo[1,2-c]pyrimidine]	≥ 80%	–	–	≥ 80%	≥ 80%	–	–	–	–	≥ 80%	≥ 80%	inhibition at 200 ppm [13]: ≥ 80%; mortality at 200 ppm [15]: ≥ 80%
